# Laboratory results taken from patent US12138251B2, “Fibrosis drug” (SCIENCE FARM LTD., priority 2019, dated 2024).
# Experiments:
# [1] = test system: bleomycin (BLM)-induced scleroderma mouse model
# Method: An eight-to-ten-week-old female C57BL/6 mouse was injected subcutaneously with 150 μl of bleomycin (dissolved in physiological saline at 1 mg/ml) or with 150 μl of physiological saline as a control on the shaved back once a day for 6 weeks on alternate days. […] For each group, the body weights of the mice before the start of the test and at the time of the tissue collection (6 weeks later) were measured and compared. A Student's t-test was used for statistics. Four mice are used for each group. […] Mouse skin tissue for HE staining was collected with a scalpel and a knife. The skin tissue was fixed with 4% paraformaldehyde, and HE-stained slides were prepared from the paraffin block. A representative stained image of each group was shown (FIG. 4b). • c. For the dermal thickness, the distance between the epidermis-dermis boundary and the subcutaneous fatty tissue was measured using HE staining. For statistics, a parametric multiple comparison test by the Tukey-Kramer method was performed. Four mice were used for each group. […] In order to compare the amounts of collagen in the skin tissues, the skins were collected using a 4 mm Derma punch centering on the bleomycin-injected site on the back skin of the mice. For the measurement of the amount of collagen, Sircol Soluble Collagen Assay Kit (#S1000, Funakoshi Co., Ltd.) was used. The amount (μg) of collagen in the skin tissue was graphed using four mice for each group. For statistics, the Tukey-Kramer method was used.
# Human dermal fibroblasts = assay: Immunoblot study of HPH-15 on TGF-β-treated human dermal fibroblasts; assay type: cell-based; details: after 2 ng/mL TGF-β for 24 hours, FIG. 3
# Description: Collagen was observed by immunoblot.
# [2] = test system: InMyoFib human colon myofibroblast cell line; assay: Immunoblot study of HPH-15 on TGF-β1-stimulated InMyoFib cells; assay type: cell-based; details: InMyoFib cells stimulated with TGF-β1 (5 ng/ml) and HPH-15 for 24 hours
# Description: An InMyoFib human colon myofibroblast cell line, which reproduces an inflammatory bowel disease, was used. The culture condition was as follows: culture medium SmBM with 5% fetal bovine serum (FBS), antibiotics, and growth factors (insulin, hFGF-B, hEGF, FBS, and gentamicin/amphotericin-B). Cells at 10 to 17 passages were used.
compound,measurement,setting,value
CC(C)(C)SCCNC(=S)c1cccc(C(=S)NCCSC(C)(C)C)n1 [HPH-15],dermal thickness increased by bleomycin,"[1]; HPH-15 dose of 50 mg/kg/day or more, oral, 4 weeks, HE staining, FIGS. 4b, c",significantly reduced
same,systemic condition of the mice,"[1]; each dose 50, 100, 200, 300 mg/kg/day oral for 4 weeks, 6 weeks after the start of the test",kept well
same,body weight at skin collection compared with before the start of the test,"[1]; each dose 50, 100, 200, 300 mg/kg/day oral for 4 weeks, 6 weeks after the start of the test, FIG. 4a",no significant decrease in body weight
same,expression of collagen,"Human dermal fibroblasts; 5 μM HPH-15, 48 hours",suppressed
same,expression of collagen,"Human dermal fibroblasts; 10 μM HPH-15, 48 hours",suppressed
same,amount of phosphorylated Smad (P-Smad),[2]; FIG. 1,reduced by the HPH-15 treatment in a dose-dependent manner
same,amount of collagen I,[2]; FIG. 2,reduced by the HPH-15 treatment in a dose-dependent manner
